Reference: PubChem BioAssay AID248 (DTP/NCI, 2004)
Several values for one entry are separate records, joined by “and”; a condition that tells them apart may be missing. Identical values can stand only once. Inconclusive results and toxic doses are left out. Rule as the data show it: active = T/C of 150% or more; inactive = T/C below 125%.

Tested on: L1210 leukemia ip in BDF1 mice, survival T/C
Experiment: NCI In Vivo Anticancer Drug Screen. Data for tumor model L1210 Leukemia (intraperitoneal) in B6D2F1 (BDF1) mice
Conditions: endpoint: mean survival time, higher = longer survival
Outline: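 Ratio derived from survival: compound-dosed mice over vehicle-dosed mice, all bearing a transplantable tumor.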

[1] = dose: 50.0 mg/kg/injection, schedule: Q01DX009 (ip), vehicle: Klucel (hydroxypropylcellulose) (HPC)
[2] = dose: 100.0 mg/kg/injection, schedule: Q01DX009 (ip), vehicle: Klucel (hydroxypropylcellulose) (HPC)
[3] = dose: 100.0 mg/kg/injection, schedule: Q04DX003 (ip), vehicle: Klucel (hydroxypropylcellulose) (HPC)
[4] = dose: 200.0 mg/kg/injection, schedule: Q04DX003 (ip), vehicle: Klucel (hydroxypropylcellulose) (HPC)
[5] = dose: 400.0 mg/kg/injection, schedule: Q04DX003 (ip), vehicle: Klucel (hydroxypropylcellulose) (HPC)
[6] = dose: 200.0 mg/kg/injection, schedule: Q01DX009 (ip), vehicle: Klucel (hydroxypropylcellulose) (HPC)
[7] = dose: 400.0 mg/kg/injection, schedule: Q01DX009 (ip), vehicle: Klucel (hydroxypropylcellulose) (HPC)
[8] = dose: 100.0 mg/kg/injection, schedule: Q04DX002 (ip), vehicle: saline with Tween-80
[9] = dose: 200.0 mg/kg/injection, schedule: Q04DX002 (ip), vehicle: saline with Tween-80
[10] = dose: 400.0 mg/kg/injection, schedule: Q04DX002 (ip), vehicle: saline with Tween-80
[11] = dose: 100.0 mg/kg/injection, schedule: Q04DX002 (ip), vehicle: Klucel (hydroxypropylcellulose) (HPC)
[12] = dose: 100.0 mg/kg/injection, schedule: Q04DX003 (ip), vehicle: saline
[13] = dose: 200.0 mg/kg/injection, schedule: Q04DX003 (ip), vehicle: saline
[14] = dose: 100.0 mg/kg/injection, schedule: Q01DX009 (ip), vehicle: saline with Tween-80
[15] = dose: 100.0 mg/kg/injection, schedule: Q04DX003 (ip), vehicle: saline with Tween-80
[16] = dose: 200.0 mg/kg/injection, schedule: Q01DX009 (ip), vehicle: saline with Tween-80
[17] = dose: 200.0 mg/kg/injection, schedule: Q04DX003 (ip), vehicle: saline with Tween-80
[18] = dose: 400.0 mg/kg/injection, schedule: Q01DX009 (ip), vehicle: saline with Tween-80
[19] = dose: 400.0 mg/kg/injection, schedule: Q04DX003 (ip), vehicle: saline with Tween-80
[20] = dose: 100.0 mg/kg/injection, schedule: Q01DX001 (ip), vehicle: saline with Tween-80
[21] = dose: 200.0 mg/kg/injection, schedule: Q01DX001 (ip), vehicle: saline with Tween-80
[22] = dose: 400.0 mg/kg/injection, schedule: Q01DX001 (ip), vehicle: saline with Tween-80

Measured: T/C

[N-]=[N+]=C1C(=O)NN=C1c1ccccc1
inactive: dose: 20.0 mg/kg/injection, schedule: Q04DX003 (ip), vehicle: Klucel (hydroxypropylcellulose) (HPC) 92 % of control | dose: 25.0 mg/kg/injection, schedule: Q01DX009 (ip), vehicle: Klucel (hydroxypropylcellulose) (HPC) 98 % of control | dose: 40.0 mg/kg/injection, schedule: Q04DX003 (ip), vehicle: Klucel (hydroxypropylcellulose) (HPC) 101 % of control | [1] 96 % of control and 108 % of control | dose: 80.0 mg/kg/injection, schedule: Q04DX003 (ip), vehicle: Klucel (hydroxypropylcellulose) (HPC) 97 % of control | [2] 101 % of control and 102 % of control | [3] 98 % of control and 101 % of control and 106 % of control | [4] 98 % of control | [5] 110 % of control

O=C(O)/C(=C\CCCCC/C=C(\CCO)C(=O)O)CCO
inactive: [2] 100 % of control | [3] 98 % of control | [6] 96 % of control | [4] 100 % of control | [7] 99 % of control | [5] 91 % of control

CCc1ccc(OC/C=C(/C)CC/C=C(\C)CCC=C(C)C)cc1
inactive: [8] 110 % of control | [9] 97 % of control | [10] 87 % of control

Cc1ccc(CCNc2ncnc(Cl)c2N)cc1
inactive: dose: 50.0 mg/kg/injection, schedule: Q01DX001 (ip), vehicle: other 88 % of control | dose: 100.0 mg/kg/injection, schedule: Q01DX001 (ip), vehicle: other 92 % of control

CCc1nc2c(OC)ccc(OC)c2[nH]c1=O
inactive: dose: 100.0 mg/kg/injection, schedule: Q04DX003 (ip), vehicle: other 103 % of control | dose: 200.0 mg/kg/injection, schedule: Q04DX003 (ip), vehicle: other 103 % of control | dose: 400.0 mg/kg/injection, schedule: Q04DX003 (ip), vehicle: other 106 % of control

CCCCNCCCC(C(=O)O)c1ccccc1 (configuration not stated)
inactive: dose: 75.0 mg/kg/injection, schedule: Q01DX001 (ip), vehicle: carboxymethylcellulose (CMC) 100 % of control | dose: 150.0 mg/kg/injection, schedule: Q01DX001 (ip), vehicle: carboxymethylcellulose (CMC) 90 % of control | dose: 300.0 mg/kg/injection, schedule: Q01DX001 (ip), vehicle: carboxymethylcellulose (CMC) 90 % of control

CN(/C(N)=N/[N+](=O)[O-])c1cccnc1
inactive: dose: 6.0 mg/kg/injection, schedule: Q04DX002 (ip), vehicle: Klucel (hydroxypropylcellulose) (HPC) 103 % of control | dose: 12.0 mg/kg/injection, schedule: Q04DX002 (ip), vehicle: Klucel (hydroxypropylcellulose) (HPC) 103 % of control | dose: 25.0 mg/kg/injection, schedule: Q04DX002 (ip), vehicle: Klucel (hydroxypropylcellulose) (HPC) 103 % of control | [1] 103 % of control | dose: 50.0 mg/kg/injection, schedule: Q04DX002 (ip), vehicle: Klucel (hydroxypropylcellulose) (HPC) 95 % of control | [2] 107 % of control | [11] 91 % of control and 92 % of control

O=C(Nc1ccc(F)cc1)Nc1cccc(C(=O)O)c1
inactive: [2] 96 % of control | [3] 96 % of control | [6] 107 % of control | [4] 100 % of control | [7] 95 % of control | [5] 105 % of control

CCCCC[C@H](O)/C=C/[C@@H]1[C@@H](C/C=C\CCCC(=O)O)[C@@H](O)C[C@H]1O
inactive: dose: 0.25 mg/kg/injection, schedule: Q#A X020 (ip), vehicle: saline 98 % of control | dose: 0.5 mg/kg/injection, schedule: Q#A X020 (ip), vehicle: saline 96 % of control | dose: 1.0 mg/kg/injection, schedule: Q#A X020 (ip), vehicle: saline 101 % of control | dose: 2.0 mg/kg/injection, schedule: Q#A X020 (ip), vehicle: saline 104 % of control | dose: 5.0 mg/kg/injection, schedule: Q04DX002 (ip), vehicle: saline 96 % of control | dose: 10.0 mg/kg/injection, schedule: Q04DX002 (ip), vehicle: saline 96 % of control | dose: 20.0 mg/kg/injection, schedule: Q04DX002 (ip), vehicle: saline 88 % of control

c1cn2cncc2cn1
inactive: dose: 25.0 mg/kg/injection, schedule: Q01DX009 (ip), vehicle: saline 90 % of control | dose: 50.0 mg/kg/injection, schedule: Q01DX009 (ip), vehicle: saline 103 % of control | dose: 100.0 mg/kg/injection, schedule: Q01DX009 (ip), vehicle: saline 88 % of control | [12] 103 % of control | [13] 94 % of control

O/N=C1\c2ccccc2-c2cc(Br)ccc21
inactive: dose: 100.0 mg/kg/injection, schedule: Q01DX001 (ip), vehicle: carboxymethylcellulose (CMC) 95 % of control | dose: 200.0 mg/kg/injection, schedule: Q01DX001 (ip), vehicle: carboxymethylcellulose (CMC) 95 % of control | dose: 400.0 mg/kg/injection, schedule: Q01DX001 (ip), vehicle: carboxymethylcellulose (CMC) 90 % of control

O=C(CCCN1CCC(O)CC1)c1ccccc1
inactive: [12] 90 % of control | [13] 104 % of control

N#CCC(NC(=O)OCc1ccccc1)C(=O)OCc1ccccc1 (configuration not stated)
inactive: [14] 98 % of control | [15] 98 % of control | [16] 96 % of control | [17] 93 % of control | [18] 86 % of control | [19] 89 % of control

O=S(=O)(O/N=C1\N=C(NOS(=O)(=O)c2ccccc2)c2ccccc21)c1ccccc1
inactive: [20] 87 % of control and 92 % of control | [8] 102 % of control and 90 % of control | [15] 101 % of control | [21] 97 % of control and 91 % of control | [9] 98 % of control and 92 % of control | [17] 94 % of control | [22] 87 % of control and 92 % of control | [10] 112 % of control and 87 % of control | [19] 92 % of control

c1ccc(CNNCc2ccccc2)cc1
inactive: dose: 75.0 mg/kg/injection, schedule: Q01DX009 (ip), vehicle: Klucel (hydroxypropylcellulose) (HPC) 102 % of control | [3] 102 % of control | dose: 150.0 mg/kg/injection, schedule: Q01DX009 (ip), vehicle: Klucel (hydroxypropylcellulose) (HPC) 109 % of control | [4] 94 % of control

CC([NH-])C(=O)[O-].[K+].[O]=[Co][O-] (configuration not stated)
inactive: dose: 75.0 mg/kg/injection, schedule: Q01DX001 (ip), vehicle: saline 107 % of control

NC(=O)OCCOC(N)=O
inactive: [15] 97 % of control | [17] 95 % of control | [19] 95 % of control

O=C(CCOCc1ccccc1)N1Cc2cc3ccccc3nc2C1=O
inactive: dose: 10.0 mg/kg/injection, schedule: Q07DX002 (ip), vehicle: alcohol 89 % of control | dose: 20.0 mg/kg/injection, schedule: Q07DX002 (ip), vehicle: alcohol 99 % of control | dose: 40.0 mg/kg/injection, schedule: Q07DX002 (ip), vehicle: alcohol 92 % of control | dose: 80.0 mg/kg/injection, schedule: Q07DX002 (ip), vehicle: alcohol 86 % of control

Cc1ccc(S(=O)(=O)N2CCCC(Br)(Br)C(=O)c3ccccc32)cc1
inactive: [3] 100 % of control | [4] 97 % of control | [5] 96 % of control

CC(C)(C)NC(=O)NC1CCCCC1
inactive: [20] 95 % of control | [14] 94 % of control and 110 % of control | [8] 97 % of control and 100 % of control | [12] 101 % of control | [21] 98 % of control | [16] 100 % of control and 87 % of control | [9] 97 % of control | [13] 111 % of control | [22] 95 % of control | [18] 100 % of control and 115 % of control | [10] 94 % of control and 90 % of control | dose: 400.0 mg/kg/injection, schedule: Q04DX003 (ip), vehicle: saline 101 % of control

CCc1cc2oc(C)c(C)c2c(N=Nc2ccc(Cl)cc2)c1O
inactive: [11] 99 % of control | dose: 200.0 mg/kg/injection, schedule: Q04DX002 (ip), vehicle: Klucel (hydroxypropylcellulose) (HPC) 96 % of control | dose: 400.0 mg/kg/injection, schedule: Q04DX002 (ip), vehicle: Klucel (hydroxypropylcellulose) (HPC) 99 % of control

COc1cc(C)c(CN(C)C)c(OC)c1
inactive: dose: 27.0 mg/kg/injection, schedule: Q01DX Z (ip), vehicle: methylcellulose (MC) 102 % of control
